Key:
CYP2C9 = CYP2C9 (Homo sapiens, UniProt P11712); assay: Inhibition of CYP2C9 (unknown origin) at 20 uM; assay type: ADME
[1] = AUC (0 to 24 hrs) in BALB/c mouse at 5 mg/kg, po measured upto 24 hrs by LC-MS/MS analysis; assay type: ADME, organism-based; parameters: dose 5 mg/kg, time < 24 hrs, route po; conditions: in vivo
CT26 [2] = assay: Antitumor activity against mouse CT26 cells allografted in BALB/c mouse assessed as median survival period at 75 mg/kg, po administered once a day for 14 days by Kaplan-Meier method (reference value: 15 days); assay type: functional; conditions: time 14 day
[3] = Toxicity in BALB/c mouse allografted with mouse CT26 cells assessed as change in body weight at 75 mg/kg, po administered once a day for 14 days in presence of anti-PD-1 antibody; assay type: organism-based; conditions: in vivo, 336 h, time 14 day
[4] = Cmax in BALB/c mouse at 1 mg/kg, iv measured upto 24 hrs by LC-MS/MS analysis; assay type: ADME, organism-based; parameters: time < 24 hrs, dose 1 mg/kg, route iv; conditions: in vivo
CYP2B6 = biological target: T1, CYP2B6 (Homo sapiens, UniProt P20813); assay: Inhibition of CYP2B6 (unknown origin) at 20 uM; assay type: ADME
T1 sequence (P20813 whole entry): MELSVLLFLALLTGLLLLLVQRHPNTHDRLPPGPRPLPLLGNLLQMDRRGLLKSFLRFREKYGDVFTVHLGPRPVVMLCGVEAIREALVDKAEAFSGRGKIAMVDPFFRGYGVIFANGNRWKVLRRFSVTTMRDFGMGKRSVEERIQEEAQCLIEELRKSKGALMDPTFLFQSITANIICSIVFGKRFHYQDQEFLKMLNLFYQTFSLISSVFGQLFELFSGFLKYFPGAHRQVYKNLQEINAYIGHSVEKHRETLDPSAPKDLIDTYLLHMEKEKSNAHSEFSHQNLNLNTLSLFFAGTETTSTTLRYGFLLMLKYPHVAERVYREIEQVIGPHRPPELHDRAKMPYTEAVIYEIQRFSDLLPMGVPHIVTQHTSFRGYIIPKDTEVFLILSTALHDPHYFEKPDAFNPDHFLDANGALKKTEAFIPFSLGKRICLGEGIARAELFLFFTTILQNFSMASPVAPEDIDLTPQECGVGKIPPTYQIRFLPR

[5] = Volume of distribution at steady state in BALB/c mouse at 5 mg/kg, po measured upto 24 hrs by LC-MS/MS analysis; assay type: ADME, organism-based; conditions: in vivo
CT26 [6] = assay: Antitumor activity against mouse CT26 cells allografted in BALB/c mouse assessed as median survival period at 75 mg/kg, po administered once a day for 14 days in presence of anti-PD-1 antibody by Kaplan-Meier method (reference value: 15 days); assay type: functional; conditions: time 14 day
[7] = Plasma protien binding of the compound incubated for 24 hrs by equilibrium dialysis method; assay type: ADME, cell-free; conditions: read-out: PPB (converted)
[8] = Oral bioavailability in BALB/c mouse at 5 mg/kg measured upto 24 hrs by LC-MS/MS analysis; assay type: ADME, organism-based; conditions: in vivo
[9] = Half life in BALB/c mouse at 1 mg/kg, iv measured upto 24 hrs by LC-MS/MS analysis; assay type: ADME, organism-based; conditions: in vivo
[10] = Toxicity in BALB/c mouse allografted with mouse CT26 cells assessed as change in body weight at 75 mg/kg, po administered once a day measured after 14 days; assay type: organism-based; conditions: in vivo, 336 h, time 14 day
[11] = Metabolic stability in mouse liver microsomes assessed as parent compound remaining at 10 uM measured after 60 mins; assay type: ADME, Microsome; conditions: read-out: Stability
[12] = Metabolic stability in human liver microsomes assessed as half life; assay type: ADME, Microsome
[13] = Half life in BALB/c mouse at 5 mg/kg, po measured upto 24 hrs by LC-MS/MS analysis; assay type: ADME, organism-based; conditions: in vivo
EMT6 = assay: Cytotoxicity against mouse EMT6 cells assessed as reduction in cell viability incubated for 72 hrs by CCK-8 assay; conditions: EMT6, 72 h
[14] = biological target: Prostaglandin E2 receptor EP4 subtype (Homo sapiens, UniProt P35408); assay: Antagonist activity at human EP4 receptor transfected in CHO/Galpha16 cells preincubated for 15 mins followed by PGE2 addition by calcium flux assay; assay type: functional, cell-based
Sequence of Prostaglandin E2 receptor EP4 subtype (P35408 whole entry): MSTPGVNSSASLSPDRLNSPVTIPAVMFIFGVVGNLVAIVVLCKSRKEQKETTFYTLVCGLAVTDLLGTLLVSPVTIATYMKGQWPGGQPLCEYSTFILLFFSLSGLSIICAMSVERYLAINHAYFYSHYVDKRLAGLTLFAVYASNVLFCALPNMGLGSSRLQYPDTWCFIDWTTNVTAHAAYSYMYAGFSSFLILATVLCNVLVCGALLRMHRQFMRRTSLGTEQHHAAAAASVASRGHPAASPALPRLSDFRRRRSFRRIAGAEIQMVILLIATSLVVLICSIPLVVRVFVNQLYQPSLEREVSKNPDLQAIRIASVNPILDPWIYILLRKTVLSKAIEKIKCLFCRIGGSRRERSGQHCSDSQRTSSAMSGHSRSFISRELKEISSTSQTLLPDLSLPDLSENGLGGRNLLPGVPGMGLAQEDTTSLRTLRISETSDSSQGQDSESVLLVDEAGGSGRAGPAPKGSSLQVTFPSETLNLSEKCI

Panc02 = assay: Cytotoxicity against mouse Panc02 cells assessed as reduction in cell viability incubated for 72 hrs by CCK-8 assay; conditions: Panc02, 72 h
3LL cell line = assay: Cytotoxicity against mouse 3LL cells assessed as reduction in cell viability incubated for 72 hrs by CCK-8 assay
[15] = Cytotoxicity against HEK293 cells assessed as reduction in cell viability incubated for 72 hrs by CCK-8 assay; assay type: toxicity, cell-based; conditions: human
CT26 [16] = assay: Cytotoxicity against mouse CT26 cells assessed as reduction in cell viability incubated for 72 hrs by CCK-8 assay; conditions: CT26, 72 h

Sequence of CYP2C9 (P11712 whole entry): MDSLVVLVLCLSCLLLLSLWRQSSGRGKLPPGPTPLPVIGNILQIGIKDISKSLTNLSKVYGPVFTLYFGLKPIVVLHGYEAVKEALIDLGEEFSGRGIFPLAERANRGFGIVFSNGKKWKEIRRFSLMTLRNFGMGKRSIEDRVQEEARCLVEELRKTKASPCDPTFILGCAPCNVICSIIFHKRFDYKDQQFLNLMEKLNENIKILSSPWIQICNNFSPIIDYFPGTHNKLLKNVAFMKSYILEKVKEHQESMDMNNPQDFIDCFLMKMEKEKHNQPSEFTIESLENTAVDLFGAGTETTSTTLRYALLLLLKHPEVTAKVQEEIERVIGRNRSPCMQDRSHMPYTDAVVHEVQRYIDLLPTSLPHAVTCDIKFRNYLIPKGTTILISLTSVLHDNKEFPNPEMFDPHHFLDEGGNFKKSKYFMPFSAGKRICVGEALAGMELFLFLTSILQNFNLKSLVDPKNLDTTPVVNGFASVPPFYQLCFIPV

Compound	inhibition at 20 µM (CYP2C9)	AUC(0-t) at 24 h [1]	Cmax [4]	inhibition at 20 µM (CYP2B6)	Vdss [5]	fraction unbound at 24 h [7]	bioavailability [8]	half-life [9]	remaining at 1 h, 10 µM [11]	half-life [12]	half-life [13]	further results
O=C(O)c1ccc(CNC(=O)c2c(Cc3ccc(F)cc3)sc3c2CCOC3)cc1	44%	2100 ng·h/mL	2840 ng/mL	78%	21.0327 L/kg	0.062	61.4%	3.2 h	92.1%	> 2.42 h	6.2 h	MST (CT26 [2]): 26 days; Activity [3]: Non-Toxic; MST (CT26 [6]): 41 days; Activity [10]: Non-Toxic
C[C@H](NC(=O)c1c(Cc2cccc(C(F)(F)F)c2)sc2c1CCOC2)c1ccc(C(=O)O)cc1	27%	1680 ng·h/mL	2800 ng/mL	75%	14.5274 L/kg	0.034	52.3%	3.4 h	90.2%	> 2.42 h	3.5 h	IC50 (EMT6): > 100 µM; IC50 [14]: 0.0017 µM; IC50 (Panc02): > 100 µM; IC50 (3LL cell line): > 100 µM; IC50 at 72 h [15]: > 100 µM; IC50 (CT26 [16]): > 100 µM

Source: ChEMBL document CHEMBL5154936, “Scaffold Hopping Strategy to Identify Prostanoid EP4 Receptor Antagonists for Cancer Immunotherapy” (J Med Chem, 2022)
